Assay: Anti-inflammatory activity
Text: Anti-Inflammatory Activity

| IC50 [nM] | Compound |
| --- | --- |
| 106 | [H]/N=c1\nc(-c2ccc(OC)c(O)c2)c2c(=O)n(C)c(=O)n(C)c2[nH]1 [Compound 4d, 5-(3-Hydroxy-4-methoxyphenyl)-7-imino-1,3-dimethyl-7,8-dihydropyrimido[4,5-d]pyrimid-ine-2,4 (^1H,3H)-dione] |
| 218 | [H]/N=c1\nc(-c2ccc(OC)c(O)c2)c2c(=O)[nH]c(=O)[nH]c2[nH]1 [Compound 4c, 5-(3-Hydroxy-4-methoxyphenyl)-7-imino-7,8-dihydropyrimido[4,5-d]pyrimidine-2,4 (^1H,3H)-dione] |
| 248 | [H]/N=c1\nc(-c2cccc(OCc3ccccc3)c2)c2c(=O)[nH]c(=O)[nH]c2[nH]1 [Compound 4a, 5-(3-(Benzyloxy)phenyl)-7-imino-7,8-dihydropyrimido[4,5-d]pyrimidine-2,4 (^1H,3H)-dione] |
| 90.9 | [H]/N=c1\nc(-c2ccc(OCc3ccccc3)cc2)c2c(=O)[nH]c(=O)[nH]c2[nH]1 [Compound 4b, 5-(4-(Benzyloxy)phenyl)-7-imino-7,8-dihydropyrimido[4,5-d]pyrimidine-2,4 (^1H,3H)-dione] |

From patent US12187733B1, “5-(Substitutedphenyl)-7-Imino-7,8-Dihydropyrimido[4,5-d]pyrimidine-2,4(1H,3H)-dione analogues as anti-inflammatory agents” (KING FAISAL UNIVERSITY, priority 2023, dated 2025)
